Values of other authors as cited in US20130109728A1, “BIOCIDE COMPOSITION” (TITAN CHEMICALS LIMITED, priority 2011, published 2013).

Experiments:
[1] = not given; remark: listed apart in the source

Compound: O=c1[nH]sc2ccccc12 [BIT, 1,2-benzisothiazolin-3-one]
- water solubility: not very water soluble

Compound: C[N+](C)(C)C.O=c1[nH]sc2ccccc12 [tetramethylammonium BIT, tetramethylammonium 1,2-benzisothiazolin-3-one]
- minimum freezing point of water solution ([1]; 59 wt % tetramethylammonium BIT (40 wt % calculated as BIT), after storage for 24 hours and seeding with solid tetramethylammonium BIT, reported in WO 02 14 293): 3 °C

Compound: Cn1sccc1=O [MIT, 2-methylisothiazolin-3-one]
- freezing point of solutions in water ([1]; solutions of MIT in water): about 0 °C
